Reference: patent publication US5232685A, “Nonionic x-ray contrast medium with high iodine content” (Schering Aktiengesellschaft, priority 1989, dated 1993)

Tests used:
mouse = assay: LD50 mouse i.v.; type: in vivo
Water solubility = type: physicochemical; details: in words
[1] = Viscosity of contrast medium solutions; type: physicochemical; details: for Viscosity: 37° C.
[2] = Osmolality of contrast medium solutions; type: physicochemical
Chemical stability = type: physicochemical; details: in words
Renal excretion = type: in vivo; details: in words

Compound | LD50 (mouse) | Viscosity ([1]; 370 mg I/ml) | Osmolality ([2]; 370 mg I/ml (37° C.)) | Viscosity ([1]; 350 mg I/ml (*)) | Osmolality ([2]; 350 mg I/ml (*) (37° C.)) | also measured
CN(CC(O)CO)C(=O)c1c(I)c(NC(=O)CO)c(I)c(C(=O)NCCO)c1I (stereo not shown) [Example 1, 5-Hydroxyacetamido-2,4,6-triido-isophthalic acid-(2,3-dihydroxy-N-methyl-propyl)-(2-hydroxy-ethyl)-diamide] | 18 g I/kg | 6.6 cP | 590 mosm/kg H2 O |  |  | Water solubility (Water solubility): very water-soluble; Improvement of viscosity value ([1]; in comparison with iopromide): 30.5%; Improvement of osmolality value ([2]; in comparison with iopromide): 23.4%; Chemical stability (Chemical stability): good chemical stability; Renal excretion (Renal excretion): very quick, selective renal excretion
CC(=O)N(CC(O)CO)c1c(I)c(C(=O)NCC(O)CO)c(I)c(C(=O)NCC(O)CO)c1I (stereo not shown) [Iohexol] | 15 g I/kg |  |  | 10.5 cP | 820 mosm/kg H2 O | 
CN(C(=O)CO)c1c(I)c(C(=O)NCC(O)CO)c(I)c(C(=O)NCC(O)CO)c1I (stereo not shown) [Iomeprol] | 14 g I/kg | 8.6 cP | 680 mosm/kg H2 O |  |  | Greatest improvement of osmolality within the previously known five contrast media ([2]; Iopamidol/Iomeprol (Iomeprol versus Iopamidol)): 18.1%
C[C@H](O)C(=O)Nc1c(I)c(C(=O)NC(CO)CO)c(I)c(C(=O)NC(CO)CO)c1I [Iopamidol] | 15 g I/kg | 9.4 cP | 830 mosm/kg H2 O |  |  | 
COCC(=O)Nc1c(I)c(C(=O)NCC(O)CO)c(I)c(C(=O)N(C)CC(O)CO)c1I (stereo not shown) [Iopromide] | 15 g I/kg | 9.5 cP | 770 mosm/kg H2 O |  |  | 
CC(=O)N(CC(O)CO)c1c(I)c(C(=O)NCCO)c(I)c(C(=O)NCC(O)CO)c1I (stereo not shown) [Ioxilan] | 15 g I/kg |  |  | 8.1 cP | 700 mosm/kg H2 O | Greatest improvement of viscosity within the previously known five contrast media ([1]; Iohexol/Ioxilan (Ioxilan versus Iohexol)): 22.9%
